# Test results published in US20160228444A1, “NUCLEOSIDE ANALOGS AND USES THEREOF” (Ramot at Tel-Aviv University Ltd., priority 2015, published 2016).
# Read-outs that look alike come from different tables or passages of the source.
# What was measured:
# astrocytes = experiment: ROS production (DCF-DA, flow cytometry); type: cell-based, rat; conditions: FIG. 1D
# Protocol: (§1) ROS were measured in live cells by monitoring the oxidation of DCF-DA (a cell-permeable probe), which undergoes deacetylation by cellular esterases and fluoresces upon oxidation by ROS. U251 MG (2×10^5 cells/six-well plates), astrocytes or H9C2 (5×10^5 cells/six-well plates) were treated as specified, incubated with […] DCF-DA for 30 min at 37° C., washed with PBS and analyzed (10^4 cells) by flow cytometry using a 488 nm excitation beam (Calibur cytometer, Becton Dickinson). The percentage of cells stained positively for DCF was determined with CellQuest software (BD Biosciences, San Jose, Calif., USA).
# (§2) To gain insights into the mechanism of cell-type specific effects, ROS production in cancer cells and in non-cancer cells after treatment for 5-6 h with AN446, Dox and AN446+Dox, were assessed by staining the cells with the membrane-permeable fluorescent dye DCF-DA.
# H9C2 cells = experiment: ROS production (DCF-DA, flow cytometry); type: cell-based, rat; conditions: FIG. 1D
# Protocol: as §1, §2
# TNF-α = TNF-α gene expression in MDA-MB-231 cells (qRT-PCR); type: cell-based, human; conditions: combination with paclitaxel, FIG. 7C
# Protocol: (§3) The effect of AN446 on inflammation-associated pathways was evaluated in the monocytic THP1 cell line and in the MDA-MB-231 breast carcinoma cell line. Supernatants of treated THP1 cells were collected and IL-6, IL-10 and TNF-α concentrations were quantified by ELISA (R&D systems). TLR4 expression in THP1 cells was assessed using fluorescent anti-TLR4 antibodies and FACS analysis. In addition, gene expression for MCP-1, TNF-α and TLR4 in MDA-MB-231 was evaluated by qRT-PCT, following treatment with AN446 and/or paclitaxel.
# fibrous collagen = experiment: Fibrosis in tumor, heart and kidney of U251 xenograft mice (Picrosirius Red / Fast Green); type: in vivo
# Protocol: AN446 was tested in vivo using a xenograft of glioblastoma (U251 cells) in mice.
# MCP-1 = MCP-1 gene expression in MDA-MB-231 cells (qRT-PCR); type: cell-based, human; conditions: combination with paclitaxel, FIG. 7C
# Protocol: as §3
# PBL = experiment: Median-effect drug interaction, MTT viability, 72 h; type: cell-based; conditions: Homo sapiens
# Protocol: (§4) Cell viability was determined by an MTT cell viability assay after 48 hours. MyLa cells (10^4 cells/well), Hut78 cells (5×10^3 cells/well) and normal PBLs (10^5 cells/well) were seeded in 96 well-plates. The PBLs were activated with 40 μg/10^6 cells of phytohemagglutinine (PHA) for 24 h before the experiment.
# The ratios of the drug combination were based on the ratio of their IC50 of each drug alone. Cell viability was determined by MTT assay, as described hereinabove. The drugs were added to the cells and incubated for 72 h.
# [1] = test system: peripheral blood lymphocytes (PBLs) from healthy volunteers; experiment: MTT cell viability assay, 48 hours; type: cell-based; conditions: Homo sapiens, Lymphocyte, read-out: IC50 PBL
# Protocol: The MyLa CTLC cell line (originating from an indolent mycosis fungoides patient) and the Hut-78 CTLC cell line (originating from an aggressive Sézary patient) were used to evaluate toxicity towards cancer cells, and peripheral blood lymphocytes (PBLs) from healthy volunteers were used to evaluate toxicity towards noncancerous cells.
# as §4
# U251 glioblastoma cells = experiment: ROS production (DCF-DA, flow cytometry); type: cell-based, human; conditions: 5-6 h treatment, FIG. 1D
# Protocol: as §1, §2
# pH2AX in H9C2 cells = experiment: Phosphorylated H2AX (Western blot), 24 or 48 hours; type: cell-based, rat; conditions: FIG. 13B
# Protocol: The effects of the abovementioned HDAC inhibitors on DNA damage and repair were then assessed by evaluating changes in levels of phosphorylated histone H2AX (pH2AX), a marker of DNA double-strand breaks, and Rad51, a marker of homologous recombination-guided DNA repair of double-strand breaks [Nagathihalli & Nagaraju, Biochim Biophys Acta 2011, 1816:209-218; Rogakou et al., J Biol Chem 1998, 273:5858-5868].
# U251 and H9C2 cells were treated with the HDAC inhibitors for 24 or 48 hours, and then subjected to Western blot analysis.
# [2] = test system: U251 human glioblastoma xenograft; experiment: Glioblastoma xenograft model (survival, body weight, tumor volume, tumor weight, Ki-67); conditions: for tumor volume of vehicle-treated group relative to treated group: from day 11, FIG. 3C
# Protocol: Xenograft of glioblastoma: 8- to 10-week-old male Hsd athymic FOXN (Harlan, Jerusalem, Israel) were inoculated sc in the flanks with 5×10^6 U251 cells. Tumor length (L) and width (W) were measured with a caliper twice weekly. Tumor volumes were calculated according to the formula: (L×W2)/2. When the tumor was established (volume of 50-100 mm^3) the mice were randomly divided into six groups treated with: vehicle control (saline); ip Dox 4 mg/kg once weekly; po AN446 25 mg/kg thrice a week; po AN7 50 mg/kg thrice a week; combination of AN446+Dox (4 mg/kg ip Dox once a week and 25 mg/kg po AN446 thrice a week); AN7+Dox (4 mg/kg ip Dox once a week and 50 mg/kg po AN7 thrice weekly). Untreated, non-bearing tumor naive mice were maintained under the same conditions. The experiment was terminated after 25 treatment days, the mice were sacrificed under CO2 and their tumors and hearts were removed, weighed and divided into parts dedicated for immunohistochemistry (IHC) and the rest were frozen (−80° C.) for Western blot and Quantitative PCR (qRT-PCR) analyses.
# Inactivation of avidin-biotin nonspecific binding was prevented by a blocking kit, according to the manufacturer's protocol (Vector Laboratories). […] The secondary antibody was biotin conjugated goat anti-rabbit or anti-mouse IgG. Slides were then stained with the ABC peroxidase system, developed with diaminobenzidine (DAB) (Vector Laboratories) and counterstained with hematoxylin (Bio-Optica, Milano, Italy). The slides were examined using an Olympus BX 52 light microscope, and images were taken with an Olympus DP50 digital camera system.
# Mice were implanted subcutaneously with U251 cells and when the tumors reached 50-100 mm^3 treatments were initiated. Survival was evaluated by the Kaplan-Meier end-product analysis, where treatment failure (the experimental end points) was a loss of ˜20% body weight, or a tumor volume of >1 cm^3.
# [3] = test system: acetylated H3 histone in H9C2 cardiomyoblasts; experiment: Histone H3 acetylation (Western blot), 24 hours; type: cell-based, rat; conditions: FIG. 12
# Protocol: The effects of the abovementioned HDAC inhibitors on histone acetylation were also compared. U251 and H9C2 cells were treated with the HDAC inhibitors for 24 hours (according to procedures described hereinabove with respect to FIGS. 9 and 10), and then subjected to Western blot analysis.
smiles,measurement,setting,value
"CCCC(CCC)C(=O)Nc1nc2c(ncn2COCCOC(=O)C(CCC)CCC)c(=O)[nH]1 [AN446, N-valproyl-9-(2-valproyloxy)ethoxymethyl-guanine]",ROS production and mortality in Dox-treated astrocytes,astrocytes; added to 200 nM Dox,attenuated ROS production and mortality
same,ROS production in astrocytes,astrocytes; single agent,did not induce ROS production
same,ROS production and mortality in Dox-treated H9C2 cells,H9C2 cells; added to 200 nM Dox,attenuated ROS production and mortality
same,ROS production in H9C2 cells,H9C2 cells; single agent,did not induce ROS production
same,paclitaxel-induced increase in expression of TNF-α,TNF-α,significantly attenuated
same,doxorubicin-induced fibrosis in the heart,"fibrous collagen; heart, co-administration with doxorubicin",attenuated the doxorubicin-induced fibrosis
same,doxorubicin-induced fibrosis in the kidneys,"fibrous collagen; kidneys, co-administration with doxorubicin",attenuated the doxorubicin-induced fibrosis
same,fibrosis in the tumor,"fibrous collagen; tumor, single agent, FIG. 8A",reduced fibrosis
same,paclitaxel-induced increase in expression of MCP-1,MCP-1,significantly attenuated
same,IC50,"PBL; read-out: com IC50, PBL, in combination with Dox",187 µM
same,IC50,"PBL; single agent, Table 2",198 µM
same,IC50,[1],200 ± 3 µM
same,percentage of ROS positive U251 cells,U251 glioblastoma cells,increased the percentage of ROS positive U251 glioblastoma cells significantly more than Dox
same,pH2AX levels in cardiomyocytes (H9C2),pH2AX in H9C2 cells,did not increase pH2AX levels
same,survival of mice when added to Dox treatment,"[2]; added to Dox 4 mg/kg ip once a week, day 25, FIG. 3A",80%
same,body weight loss when added to Dox treatment,"[2]; added to Dox 4 mg/kg, FIG. 3B",significant attenuation of body weight loss
same,Ki-67 positive (proliferating) cells in tumors,"[2]; in combination with Dox, FIG. 3F",reduced the proliferating cells to a level significantly lower than any of the single drug treatments
same,tumor volume of vehicle-treated group relative to treated group,[2]; in combination with Dox,3 fold
same,Ki-67 positive cells in tumors,"[2]; single agent vs vehicle, FIGS. 3E, 3F",considerably more Ki-67 positive cells were detected in tumors of the vehicle-treated mice
same,tumor volume of vehicle-treated group relative to treated group,[2]; single agent,2 fold
same,survival of mice until end of experiment (day 25),"[2]; single agent: AN446 25 mg/kg or AN7 50 mg/kg po thrice weekly, Dox 4 mg/kg ip once a week, FIG. 3A",100%
same,histone acetylation in H9C2 cardiomyocytes,[3],not in non-cancerous cardiomyocytes
